What was measured:
Jak2 (a.a. 828-1132) = target: T1, Jak2 (a.a. 828-1132) (Homo sapiens, UniProt O60674); test: In vitro JAK kinase assay (HTRF, phosphorylation of a biotinylated peptide), JAK2, reported as JAK2/JAK1 ratio; assay type: biochemical; details: Assay Conditions 1 mM ATP
T1 construct: Jak2 (a.a. 828-1132); His tag (N); made in house; host or cells: insect cells (baculovirus)

[1] = target: T2, human JAK1 (a.a. 837-1142) (Homo sapiens, UniProt P23458); test: In vitro JAK kinase assay (HTRF, phosphorylation of a biotinylated peptide), JAK1; assay type: biochemical; details: Assay Conditions 1 mM ATP
T2 construct: human JAK1 (a.a. 837-1142); His tag (N); made in house; host or cells: insect cells (baculovirus)
T2 sequence (P23458 849-1154): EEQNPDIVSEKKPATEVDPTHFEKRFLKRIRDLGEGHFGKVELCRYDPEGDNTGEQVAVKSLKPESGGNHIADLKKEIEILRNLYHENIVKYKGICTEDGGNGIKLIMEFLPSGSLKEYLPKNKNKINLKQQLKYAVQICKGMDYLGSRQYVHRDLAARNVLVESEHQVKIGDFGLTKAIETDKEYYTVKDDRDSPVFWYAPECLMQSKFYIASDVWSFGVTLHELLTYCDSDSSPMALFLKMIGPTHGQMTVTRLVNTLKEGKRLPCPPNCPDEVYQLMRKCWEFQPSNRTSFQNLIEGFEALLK
How it was run: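 IC50s come from HTRF detection (Eu-Py20, SA-APC, 40 min binding) after 1 h RT reactions with 500 nM biotinylated peptide in Tris pH 7.8 buffer. ATP either 1 mM or Km-level, 90 μM for JAK1 and 30 μM for JAK2; enzymes are baculovirus-expressed His-tagged catalytic domains (JAK1 837-1142, JAK2 828-1132).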

T1 sequence (O60674 828-1132): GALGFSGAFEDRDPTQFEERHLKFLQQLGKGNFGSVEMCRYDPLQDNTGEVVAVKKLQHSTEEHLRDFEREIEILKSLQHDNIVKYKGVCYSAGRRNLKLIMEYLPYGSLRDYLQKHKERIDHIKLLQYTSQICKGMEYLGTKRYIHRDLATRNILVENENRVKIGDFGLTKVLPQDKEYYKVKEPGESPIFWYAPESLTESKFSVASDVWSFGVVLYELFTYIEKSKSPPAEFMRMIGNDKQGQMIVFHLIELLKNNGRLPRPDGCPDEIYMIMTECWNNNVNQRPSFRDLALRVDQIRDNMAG

Structure (SMILES) | JAK2/JAK1 IC50 ratio (Jak2 (a.a. 828-1132)) | IC50 [1] [nM]
CN(C)S(=O)(=O)Nc1nccc(N2CCC(C(CC#N)n3cc(-c4ncnc5[nH]ccc45)cn3)C2)n1 (single isomer, unassigned) [Example 151, N-[4-(3-{2-cyano-1-[4-(7H-pyrrolo[2,3-d]pyrimidin-4-yl)-1H-pyrazol-1-yl]ethyl}pyrrolidin-1-yl)pyrimidin-2-yl]-N,N-dimethylsulfonamide] | 12.5 | < 50
CNC(=O)c1cc(N2CCC(C(CC#N)n3cc(-c4ncnc5[nH]ccc45)cn3)C2)ccn1 (single isomer, unassigned) [Example 152, 4-(3-{2-cyano-1-[4-(7H-pyrrolo[2,3-d]pyrimidin-4-yl)-1H-pyrazol-1-yl]ethyl}pyrrolidin-1-yl)-N-methylpyridine-2-carboxamide] | 6.7 | < 50
CN(C)C(=O)c1cc(N2CCC(C(CC#N)n3cc(-c4ncnc5[nH]ccc45)cn3)C2)ccn1 (single isomer, unassigned) [Example 153, 4-(3-{2-cyano-1-[4-(7H-pyrrolo[2,3-d]pyrimidin-4-yl)-1H-pyrazol-1-yl]ethyl}pyrrolidin-1-yl)-N,N-dimethylpyridine-2-carboxamide] | >11.1 | < 50
N#CCC(C1CCN(c2ccnc(C(=O)Nc3ccccc3)c2)C1)n1cc(-c2ncnc3[nH]ccc23)cn1 (single isomer, unassigned) [Example 154, 4-(3-{2-cyano-1-[4-(7H-pyrrolo[2,3-d]pyrimidin-4-yl)-1H-pyrazol-1-yl]ethyl}pyrrolidin-1-yl)-N-phenylpyridine-2-carboxamide] | >11.8 | < 50
N#CCC(C1CCN(c2nc3cccc(F)c3o2)C1)n1ccc(-c2ncnc3[nH]ccc23)c1 (single isomer, unassigned) [Example 158-1, 3-[1-(7-fluoro-1,3-benzoxazol-2-yl)pyrrolidin-3-yl]-3-[3-(7H-pyrrolo[2,3-d]pyrimidin-4-yl)-1H-pyrrol-1-yl]propanenitrile] | 22.5 | < 50
N#CCC(C1CCN(c2nc3cccc(F)c3o2)C1)n1ccc(-c2ncnc3[nH]ccc23)c1 (single isomer, unassigned) [Example 158-2, 3-[1-(7-fluoro-1,3-benzoxazol-2-yl)pyrrolidin-3-yl]-3-[3-(7H-pyrrolo[2,3-d]pyrimidin-4-yl)-1H-pyrrol-1-yl]propanenitrile] | 19.0 | < 50
N#CCC(C1CCN(c2nc3cccc(Br)c3o2)C1)n1cc(-c2ncnc3[nH]ccc23)cn1.O=C(O)C(F)(F)F (single isomer, unassigned) [Example 159, 3-[1-(7-bromo-1,3-benzoxazol-2-yl)pyrrolidin-3-yl]-3-[4-(7H-pyrrolo[2,3-d]pyrimidin-4-yl)-1H-pyrazol-1-yl]propanenitrile trifluoracetate] | 12.9 | < 50
COc1cccc2nc(N3CCC(C(CC#N)n4cc(-c5ncnc6[nH]ccc56)cn4)C3)oc12 (single isomer, unassigned) [Example 162, 3-[1-(7-methoxy-1,3-benzoxazol-2-yl)pyrrolidin-3-yl]-3-[4-(7H-pyrrolo[2,3-d]pyrimidin-4-yl)-1H-pyrazol-1-yl]propanenitrile] | 7.7 | < 50
CCOc1cccc2nc(N3CCC(C(CC#N)n4cc(-c5ncnc6[nH]ccc56)cn4)C3)oc12 (single isomer, unassigned) [Example 163, 3-(4-(7H-pyrrolo[2,3-d]pyrimidin-4-yl)-1H-pyrazol-1-yl)-3-(1-(7-ethoxybenzo[d]oxazol-2-yl)pyrrolidin-3-yl)propanenitrile] | 3.3 | < 50
N#CCC(C1CCN(c2nc3cccc(OC(F)F)c3o2)C1)n1cc(-c2ncnc3[nH]ccc23)cn1 (single isomer, unassigned) [Example 164, 3-(4-(7H-pyrrolo[2,3-d]pyrimidin-4-yl)-1H-pyrazol-1-yl)-3-(1-(7-(difluoromethoxy)benzo[d]oxazol-2-yl)pyrrolidin-3-yl)propanenitrile] | 10.9 | < 50
N#CCC(C1CCN(c2nc3cccc(CO)c3o2)C1)n1cc(-c2ncnc3[nH]ccc23)cn1 (single isomer, unassigned) [Example 166, 3-{1-[7-(hydroxymethyl)-1,3-benzoxazol-2-yl]pyrrolidin-3-yl}-3-[4-(7H-pyrrolo[2,3-d]pyrimidin-4-yl)-1H-pyrazol-1-yl]propanenitrile] | >8.7 | < 50

Further lines, results first:

JAK2/JAK1 IC50 ratio (Jak2 (a.a. 828-1132)) | IC50 [1] [nM] | Structure (SMILES)
5.3 | 50 to 100 | N#CCC(C1CCN(c2ccc3c(n2)OCC3)C1)n1cc(-c2ncnc3[nH]ccc23)cn1 (single isomer, unassigned) [Example 155, 3-[1-(2,3-dihydrofuro[2,3-b]pyridin-6-yl)pyrrolidin-3-yl]-3-[4-(7H-pyrrolo[2,3-d]pyrimidin-4-yl)-1H-pyrazol-1-yl]propanenitrile]
8.0 | < 50 | N#CCC(C1CCN(c2ccc3ccsc3n2)C1)n1cc(-c2ncnc3[nH]ccc23)cn1 (single isomer, unassigned) [Example 156, 3-[4-(7H-pyrrolo[2,3-d]pyrimidin-4-yl)-1H-pyrazol-1-yl]-3-(1-thieno[2,3-b]pyridin-6-ylpyrrolidin-3-yl)propanenitrile]
>5.3 | < 50 | N#CCC(C1CCN(c2ccc3c(n2)C(F)(F)CC3)C1)n1cc(-c2ncnc3[nH]ccc23)cn1 (single isomer, unassigned) [Example 157, 3-[1-(7,7-difluoro-6,7-dihydro-5H-cyclopenta[b]pyridin-2-yl)pyrrolidin-3-yl]-3-[4-(7H-pyrrolo[2,3-d]pyrimidin-4-yl)-1H-pyrazol-1-yl]propanenitrile bis(trifluoroacetate)]
>11.4 | < 50 | N#CCC(C1CCN(c2nc3cccc(C#N)c3o2)C1)n1cc(-c2ncnc3[nH]ccc23)cn1 (single isomer, unassigned) [Example 160, 2-(3-{2-cyano-1-[4-(7H-pyrrolo[2,3-d]pyrimidin-4-yl)-1H-pyrazol-1-yl]ethyl}pyrrolidin-1-yl)-1,3-benzoxazole-7-carbonitrile]
24.7 | < 50 | N#CCC(C1CCN(c2nc3cccc(O)c3o2)C1)n1cc(-c2ncnc3[nH]ccc23)cn1 (single isomer, unassigned) [Example 161, 3-[1-(7-hydroxy-1,3-benzoxazol-2-yl)pyrrolidin-3-yl]-3-[4-(7H-pyrrolo[2,3-d]pyrimidin-4-yl)-1H-pyrazol-1-yl]propanenitrile]
7.1 | < 50 | N#CCC(C1CCN(c2nc3c(O)cccc3o2)C1)n1cc(-c2ncnc3[nH]ccc23)cn1 (single isomer, unassigned) [Example 165, 3-[1-(4-hydroxy-1,3-benzoxazol-2-yl)pyrrolidin-3-yl]-3-[4-(7H-pyrrolo[2,3-d]pyrimidin-4-yl)-1H-pyrazol-1-yl]propanenitrile]
>13.3 | < 50 | N#CCC(C1CCN(c2ncc3ccoc3c2C#N)C1)n1cc(-c2ncnc3[nH]ccc23)cn1 (single isomer, unassigned) [Example 169, 6-(3-{2-cyano-1-[4-(7H-pyrrolo[2,3-d]pyrimidin-4-yl)-1H-pyrazol-1-yl]ethyl}pyrrolidin-1-yl)furo[3,2-c]pyridine-7-carbonitrile]
20.0 | < 50 | N#CCC(C1CCN(c2ncc3c(c2C#N)S(=O)(=O)CC3)C1)n1cc(-c2ncnc3[nH]ccc23)cn1 (single isomer, unassigned) [Example 172, 6-(3-{2-cyano-1-[4-(7H-pyrrolo[2,3-d]pyrimidin-4-yl)-1H-pyrazol-1-yl]ethyl}pyrrolidin-1-yl)-2,3-dihydrothieno[3,2-c]pyridine-7-carbonitrile 1,1-dioxide]
>27.3 | < 50 | N#CCC(C1CCN(c2ncc3c(c2C#N)SCC3)C1)n1cc(-c2ncnc3[nH]ccc23)cn1 (single isomer, unassigned) [Example 173, 6-(3-{2-cyano-1-[4-(7H-pyrrolo[2,3-d]pyrimidin-4-yl)-1H-pyrazol-1-yl]ethyl}pyrrolidin-1-yl)-2,3-dihydrothieno[3,2-c]pyridine-7-carbonitrile]
28.5 | < 50 | N#CCC(C1CCN(c2ncc3c(c2C#N)SCC3)C1)n1ccc(-c2ncnc3[nH]ccc23)c1 (single isomer, unassigned) [Example 174-1, 6-(3-{2-cyano-1-[3-(7H-pyrrolo[2,3-d]pyrimidin-4-yl)-1H-pyrrol-1-yl]ethyl}pyrrolidin-1-yl)-2,3-dihydrothieno[3,2-c]pyridine-7-carbonitrile]
11.1 | < 50 | N#CCC(C1CCN(c2ncc3c(c2C#N)SCC3)C1)n1ccc(-c2ncnc3[nH]ccc23)c1 (single isomer, unassigned) [Example 174-2, 6-(3-{2-cyano-1-[3-(7H-pyrrolo[2,3-d]pyrimidin-4-yl)-1H-pyrrol-1-yl]ethyl}pyrrolidin-1-yl)-2,3-dihydrothieno[3,2-c]pyridine-7-carbonitrile]
15.4 | < 50 | N#CCC(C1CCN(c2ncc3ccsc3c2C#N)C1)n1cc(-c2ncnc3[nH]ccc23)cn1 (single isomer, unassigned) [Example 175, 6-(3-{2-cyano-1-[4-(7H-pyrrolo[2,3-d]pyrimidin-4-yl)-1H-pyrazol-1-yl]ethyl}pyrrolidin-1-yl)thieno[3,2-c]pyridine-7-carbonitrile]
